Experimental data as given in patent US20060105941A1, “Mixed antibiotic codrugs” (ALLERGAN, INC., priority 2004, published 2006).

Tests used:
[1] = system: corneal ulcer; experiment: Eye drop given to a patient with corneal ulcer; format: in vivo; settings: patient suffering from corneal ulcer, over a period of two weeks
Experimental: An eye drop containing compound 1 is administered to a patient suffering from corneal ulcer over a period of two weeks.

[2] = system: bacterial conjunctivitis; experiment: Eye drop given to a patient with bacterial conjunctivitis; format: in vivo; settings: patient suffering from bacterial conjunctivitis, over a period of two weeks
Experimental: An eye drop containing compound 1 is administered to a patient suffering from bacterial conjunctivitis over a period of two weeks.

COc1c(N2CCN[C@H](C)C2)c(F)cc2c(=O)c(C(=O)OC(C)C(=O)Oc3cccc4c3C(=O)C3=C(O)C5(O)C(=O)C(C(N)=O)=C(O)C(N(C)C)C5CC3C4(C)O)cn(C3CC3)c12 (stereo partly shown) [Compound 1]
bacterial infection after the complete treatment [1]: eliminated | symptoms after the complete treatment [1]: relief of symptoms is experienced | bacterial infection after the complete treatment [2]: eliminated | symptoms after the complete treatment [2]: relief of symptoms is experienced
